Data as given in EP4631501A1, “COMBINATIONS OF A CALCIUM HOMEOSTASIS DISRUPTOR WITH A DEATH RECEPTOR 5 AGONIST FOR TREATING CANCER” (Stichting Het Nederlands Kanker Instituut- Antoni van …, priority 2024, dated 2025).
Read-outs that look alike come from different tables or passages of the source.

Legend:
A549 cells = experiment: Colony formation assay in SLC25A23 shRNA knock-down A549 cells treated with senescence inducers; type: cell-based; conditions: three independent shRNAs targeting SLC25A23
DR5 = experiment: Western blot of DR5 induction in A549 cells treated with salinomycin and NAC; type: cell-based; conditions: salinomycin plus NAC
Text: (Fig. 3A). This notion was also supported by the western blot analysis. We observed that an upregulation of death receptor 5 (DR5), cleavage of caspase 3 and 8 (cl-CASP8 and 3), indicates extrinsic apoptosis activation. […] In Figure 3B, we noticed the upregulation of cJUn and DR5 by salinomycin treatment. This has been denoted by the past studies showing salinomycin could modulate autophagy to induce ROS (Verdoodt 2012). The elevated ROS led to cJun upregulation and NF-kB activation to increase the DR5 expression (Fu 2010). To validated molecular mechanism in our senescent models, we knocked-down cJun, NF-kB2 and Nrf2 using shRNA. […]
• Figure 1: CRISPR-based senolytic screen identifies SLC25A23 as a senolytic target • (A). […] Changes in library representation after 10 days doxycycline treatment were determined by Illumina deep-sequencing. • (B). gRNAs prioritized for further analysis were selected by the fold depletion of abundance in S2 and S1 samples compared with that in P2 and P2 samples, using methods as described previously (Evers et al., Nat Biotech, 2016). […] Cell viability was assessed by colony formation assay in the A549 cells stably infected with doxycycline-inducible Cas9 (iCas9) lentiviral vectors and a guide RNAs target SLC25A23 lentiviral vector. […] Cell viability was assessed by colony formation assay in the A549 and MDA-MB-231 cells. […]

A549 lung cancer cells = type: in vivo, BALB/c nude mice
Text: (§1) In order to obtain a synergistic effect, we combed low doses of DR5 agonist antibody either IgG-conatumumab or IgA-conatumumab with salinomycin, as senolytic cocktails. […] To test this senolytic cocktail in vivo, we used both immunodeficient and immunocompetent mouse models. We engrafted A549 cells into immunodeficient nude mice and Hepa1-6 liver cancer cells in syngeneic immunocompetent C57BL/6 mice. After tumors were established, we treated with alisertib to induce senescence and combinations of the two senolytic drugs.
(§2) Schematic of iCas9-associated senolytic CRISPR screen workflow. A549 cells were infected with a doxycycline-inducible Cas9 (iCas9) lentiviral vector. Next, Brunello lentiviral whole genome-wide gRNA collection virus was introduced to the A549-iCas9 cells. […] Changes in library representation after 10 days doxycycline treatment were determined by Illumina deep-sequencing. • (B). gRNAs prioritized for further analysis were selected by the fold depletion of abundance in S2 and S1 samples compared with that in P2 and P2 samples, using methods as described previously (Evers et al., Nat Biotech, 2016). […] Cell viability was assessed by colony formation assay in the A549 cells stably infected with doxycycline-inducible Cas9 (iCas9) lentiviral vectors and a guide RNAs target SLC25A23 lentiviral vector.

[1] = test system: Hepa1-6 liver cancer cells; type: in vivo, C57BL/6 mice
Text: as §1, §2

senescent cells = experiment: Cell morphology imaging of senescent cells treated with salinomycin
[2] = test system: alisertib-induced senescent and proliferating A549; experiment: Western blot of cell death biomarkers in alisertib-induced senescent and proliferating A549
[3] = test system: lung (A549), breast (MDA-MB-231, MCF-7, T47D) and liver (SK-Hep1) cancer models; experiment: Colony formation assay, senescent versus proliferating cancer cells treated with salinomycin

COc1ccc2c(c1)C1(CC1c1ccc3c(C=Cc4ccc(CN5CC(C)OC(C)C5)cc4)n[nH]c3c1)C(=O)N2 (stereo not shown) [CFI-400945]
sensitivity of SLC25A23 suppressed cells to senescence inducers (A549 cells): highly sensitive

CC(=O)N[C@@H](CS)C(=O)O [N-Acetyl Cysteine (NAC), N-Acetyl Cysteine]
DR5 upregulation in salinomycin treated cells (DR5): could reserve the DR5 upregulation

COc1cc(Nc2ncc3c(n2)-c2ccc(Cl)cc2C(c2c(F)cccc2OC)=NC3)ccc1C(=O)O [alisertib]
tumor growth (A549 lung cancer cells; A549 in nude mice, 25 mg kg-1 alisertib, 1.5 mg kg-1 salinomycin, 5 µg per dose conatumumab (2.5 µg in three-way combination)): limited tumor growth inhibition
sensitivity of SLC25A23 suppressed cells to senescence inducers (A549 cells): highly sensitive
tumor growth ([1]; Hepa1-6 in C57BL/6 mice, 25 mg kg-1 alisertib, 1.5 mg kg-1 salinomycin, 0.3 µg per dose MD5-1): limited tumor growth inhibition

COc1cc([C@@H]2c3cc4c(cc3[C@@H](O[C@@H]3O[C@@H]5CO[C@@H](C)O[C@H]5[C@H](O)[C@H]3O)[C@H]3COC(=O)[C@H]23)OCO4)cc(OC)c1O [etoposide]
sensitivity of SLC25A23 suppressed cells to senescence inducers (A549 cells): highly sensitive

CC[C@@H](C(=O)[C@@H](C)[C@@H](O)[C@H](C)[C@@H]1O[C@@H]([C@@H](CC)C(=O)O)CC[C@@H]1C)[C@H]1O[C@]2(C=C[C@@H](O)[C@]3(CC[C@@](C)([C@H]4CC[C@](O)(CC)[C@H](C)O4)O3)O2)[C@H](C)C[C@@H]1C [salinomycin]
tumor growth (A549 lung cancer cells; mouse, in vivo): limited tumor growth inhibition
cell death phenotype under the microscope (senescent cells): PANoptosis phenotype
Microtubule-associated protein 1A/1B-light chain 3 (LC3) [2]: upregulation
cJUn [2]: upregulation
caspase 3 and 8 (cl-CASP8 and 3) [2]: cleavage
cleaved Gasdermin-D (cl-GSDMD) [2]: upregulation
death receptor 5 (DR5) [2]: upregulation
mixed lineage kinase domain-like protein (MLKL) phosphorylation [2]: increased phosphorylation
tumor growth ([1]; mouse, in vivo): limited tumor growth inhibition
killing of senescent cells versus proliferating cells [3]: preferential killing of senescent cells over proliferating cells
